According to patent US5955440A, “Macrolide LHRH antagonists” (Abbott Laboratories, priority 1998, dated 1999):

Target: T1, LHRH rat pituitary receptor (Rattus norvegicus, UniProt P30969)
T1 construct: from tissue; host or cells: rat pituitary
T1 sequence (P30969 1-327): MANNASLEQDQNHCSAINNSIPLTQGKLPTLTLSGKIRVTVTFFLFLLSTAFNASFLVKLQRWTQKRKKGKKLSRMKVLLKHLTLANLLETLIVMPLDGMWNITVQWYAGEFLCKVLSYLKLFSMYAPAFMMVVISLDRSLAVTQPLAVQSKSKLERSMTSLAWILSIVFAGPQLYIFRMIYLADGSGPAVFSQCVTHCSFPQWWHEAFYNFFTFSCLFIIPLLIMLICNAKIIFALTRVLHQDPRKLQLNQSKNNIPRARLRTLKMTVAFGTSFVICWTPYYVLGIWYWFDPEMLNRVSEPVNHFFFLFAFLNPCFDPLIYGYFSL
Test: LHRH rat pituitary receptor binding (pKI)
Conditions: negative logarithm of the equilibrium dissociation constants; for Ki: Table 1, read-out: receptor binding affinity (pKI) (converted)
Procedure: Representative compounds of the present invention were evaluated in in vitro tests for LHRH rat pituitary receptor binding (pKI) and for LH inhibition from rat pituitary cells for antagonist potency (pA2). The tests employed the methods detailed in F. Haviv, et al. J. Med. Chem., 32: 2340-2344 (1989). The receptor binding affinity (pKI) is the negative logarithm of the equilibrium dissociation constants.

CC[C@H]1OC(=O)[C@H](C)[C@@H](O[C@H]2C[C@@](C)(OC)[C@@H](O)[C@H](C)O2)[C@H](C)[C@@H](O[C@@H]2O[C@H](C)C[C@H](N(C)C3CCCC3)[C@H]2O)[C@](C)(OC)C[C@@H](C)C(=O)[C@H](C)[C@H]2N(CCc3cccc(Cl)c3)C(=O)O[C@]12C [Example 24, 3'-N-Desmethyl-3'-N-cyclopentyl-11-deoxy-11-[carboxy-(3-chlorophenethylamino)]-6-O-methyl-erythromycin A 11,12-(cyclic carbamate)]
Ki: 2.75 nM

CC[C@H]1OC(=O)[C@H](C)[C@@H](O[C@H]2C[C@@](C)(OC)[C@@H](O)[C@H](C)O2)[C@H](C)[C@@H](O[C@@H]2O[C@H](C)C[C@H](N(C)Cc3ccncc3)[C@H]2O)[C@](C)(OC)C[C@@H](C)C(=O)[C@H](C)[C@H]2N(CCc3ccc(Cl)cc3)C(=O)O[C@]12C [Example 34, 3'-N-Desmethyl-3'-N-(4-pyridylmethyl)-11-deoxy-11-[carboxy-(4-chlorophenethylamino)]-6-O-methyl-erythromycin A 11,12-(cyclic carbamate)]
Ki: 10 nM

CCC(C)N(C)[C@H]1C[C@@H](C)O[C@@H](O[C@@H]2[C@@H](C)[C@H](O[C@H]3C[C@@](C)(OC)[C@@H](O)[C@H](C)O3)[C@@H](C)C(=O)O[C@H](CC)[C@@]3(C)OC(=O)N(CCc4ccc(Cl)cc4)[C@@H]3[C@@H](C)C(=O)[C@H](C)C[C@@]2(C)OC)[C@@H]1O (stereo partly shown) [Example 35, 3'-N-Desmethyl-3'-N-(2-butyl)-11-deoxy-11-[carboxy-(4-chlorophenethylamino)]-6-O-methyl-erythromycin A 11,12-(cyclic carbamate)]
Ki: 7.59 nM

CCC(CC)N(C)[C@H]1C[C@@H](C)O[C@@H](O[C@@H]2[C@@H](C)[C@H](O[C@H]3C[C@@](C)(OC)[C@@H](O)[C@H](C)O3)[C@@H](C)C(=O)O[C@H](CC)[C@@]3(C)OC(=O)N(CCc4ccc(Cl)cc4)[C@@H]3[C@@H](C)C(=O)[C@H](C)C[C@@]2(C)OC)[C@@H]1O [Example 36, 3'-N-Desmethyl-3'-N-(3-pentyl)-11-deoxy-11-[carboxy-(4-chlorophenethylamino)]-6-O-methyl-erythromycin A 11,12-(cyclic carbamate)]
Ki: 9.12 nM

CC[C@H]1OC(=O)[C@H](C)[C@@H](O[C@H]2C[C@@](C)(OC)[C@@H](O)[C@H](C)O2)[C@H](C)[C@@H](O[C@@H]2O[C@H](C)C[C@H](N(C)CC3CC3)[C@H]2O)[C@](C)(OC)C[C@@H](C)C(=O)[C@H](C)[C@H]2N(CCc3ccc(Cl)cc3)C(=O)O[C@]12C [Example 37, 3'-N-Desmethyl-3'-N-(cyclopropylmethyl)-11-deoxy-11-[carboxy-(4-chlorophenethylamino)]-6-O-methyl-erythromycin A 11,12-(cyclic carbamate)]
Ki: 9.12 nM

CC[C@H]1OC(=O)[C@H](C)[C@@H](O[C@H]2C[C@@](C)(OC)[C@@H](O)[C@H](C)O2)[C@H](C)[C@@H](O[C@@H]2O[C@H](C)C[C@H](N(C)CCC3CC3)[C@H]2O)[C@](C)(OC)C[C@@H](C)C(=O)[C@H](C)[C@H]2N(CCc3ccc(Cl)cc3)C(=O)O[C@]12C [Example 38, 3'-N-Desmethyl-3'-N-[2-(cyclopropyl)-ethyl]-11-deoxy-11-[carboxy-(4-chlorophenethylamino)]-6-O-methyl-erythromycin A 11,12-(cyclic carbamate)]
receptor binding affinity (pKI) (Table 1): 8.17

CCCN(C)[C@H]1C[C@@H](C)O[C@@H](O[C@@H]2[C@@H](C)[C@H](O[C@H]3C[C@@](C)(OC)[C@@H](O)[C@H](C)O3)[C@@H](C)C(=O)O[C@H](CC)[C@@]3(C)OC(=O)N(CCc4ccc(OC)cc4)[C@@H]3[C@@H](C)C(=O)[C@H](C)C[C@@]2(C)OC)[C@@H]1O [Example 39, 3'-N-Desmethyl-3'-N-propyl-11-deoxy-11-[carboxy-(4-methoxyphenethylamino)]-6-O-methyl-erythromycin A 11,12-(cyclic carbamate)]
Ki: 5.13 nM

CC[C@H]1OC(=O)[C@H](C)[C@@H](O[C@H]2C[C@@](C)(OC)[C@@H](O)[C@H](C)O2)[C@H](C)[C@@H](O[C@@H]2O[C@H](C)C[C@H](N(C)C3CCCC3)[C@H]2O)[C@](C)(OC)C[C@@H](C)C(=O)[C@H](C)[C@H]2N(CCc3ccc(OC)cc3)C(=O)O[C@]12C [Example 40, 3'-N-Desmethyl-3'-N-cyclopentyl-11-deoxy-11-[carboxy-(4-methoxyphenethylamino)]-6-O-methyl-erythromycin A 11,12-(cyclic carbamate)]
Ki: 5.75 nM

CCCN(C)[C@H]1C[C@@H](C)O[C@@H](O[C@@H]2[C@@H](C)[C@H](O[C@H]3C[C@@](C)(OC)[C@@H](O)[C@H](C)O3)[C@@H](C)C(=O)O[C@H](CC)[C@@]3(C)OC(=O)N(CCc4ccc(C)c(C)c4)[C@@H]3[C@@H](C)C(=O)[C@H](C)C[C@@]2(C)OC)[C@@H]1O [Example 41, 3'-N-Desmethyl-3'-N-propyl-11-deoxy-11-[carboxy-(3,4-dimethylphenethylamino)]-6-O-methyl-erythromycin A 11,12-(cyclic carbamate)]
Ki: 8.51 nM

CC[C@H]1OC(=O)[C@H](C)[C@@H](O[C@H]2C[C@@](C)(OC)[C@@H](O)[C@H](C)O2)[C@H](C)[C@@H](O[C@@H]2O[C@H](C)C[C@H](N(C)C3CCCC3)[C@H]2O)[C@](C)(OC)C[C@@H](C)C(=O)[C@H](C)[C@H]2N(CCc3ccc(OC)c(Br)c3)C(=O)O[C@]12C [Example 42, 3'-N-Desmethyl-3'-N-cyclopentyl-11-deoxy-11-[carboxy-(3-bromo-4-methoxyphenethylamino)]-6-O-methyl-erythromycin A 11,12-(cyclic carbamate)]
Ki: 7.24 nM

CCCN(C)[C@H]1C[C@@H](C)O[C@@H](O[C@@H]2[C@@H](C)[C@H](O[C@H]3C[C@@](C)(OC)[C@@H](O)[C@H](C)O3)[C@@H](C)C(=O)O[C@H](CC)[C@@]3(C)OC(=O)N(CCc4ccc(OC)c(Br)c4)[C@@H]3[C@@H](C)C(=O)[C@H](C)C[C@@]2(C)OC)[C@@H]1O [Example 43, 3'-N-Desmethyl-3'-N-propyl-11-deoxy-11-[carboxy-(3-bromo-4-methoxyphenethylamino)]-6-O-methyl-erythromycin A 11,12-(cyclic carbamate)]
Ki: 3.55 nM

CCCN(C)[C@H]1C[C@@H](C)O[C@@H](O[C@@H]2[C@@H](C)[C@H](O[C@H]3C[C@@](C)(OC)[C@@H](O)[C@H](C)O3)[C@@H](C)C(=O)O[C@H](CC)[C@@]3(C)OC(=O)N(CCc4ccc(F)c(Cl)c4)[C@@H]3[C@@H](C)C(=O)[C@H](C)C[C@@]2(C)OC)[C@@H]1O [Example 44, 3'-N-Desmethyl-3'-N-propyl-11-deoxy-11-[carboxy-(3-chloro-4-fluorophenethylamino)]-6-O-methyl-erythromycin A 11,12-(cyclic carbamate)]
Ki: 1.45 nM

CC[C@H]1OC(=O)[C@H](C)[C@@H](O[C@H]2C[C@@](C)(OC)[C@@H](O)[C@H](C)O2)[C@H](C)[C@@H](O[C@@H]2O[C@H](C)C[C@H](N(C)Cc3ccco3)[C@H]2O)[C@](C)(OC)C[C@@H](C)C(=O)[C@H](C)[C@H]2N(CCc3ccc(F)c(Cl)c3)C(=O)O[C@]12C [Example 45, 3'-N-Desmethyl-3'-N-(2-furyl)methyl-11-deoxy-11-[carboxy-(3-chloro-4-fluorophenethylamino)]-6-O-methyl-erythromycin A 11,12-(cyclic carbamate)]
Ki: 3.55 nM

CC[C@H]1OC(=O)[C@H](C)[C@@H](O[C@H]2C[C@@](C)(OC)[C@@H](O)[C@H](C)O2)[C@H](C)[C@@H](O[C@@H]2O[C@H](C)C[C@H](N(C)Cc3ccc(CO)o3)[C@H]2O)[C@](C)(OC)C[C@@H](C)C(=O)[C@H](C)[C@H]2N(CCc3ccc(F)c(Cl)c3)C(=O)O[C@]12C [Example 46, 3'-N-Desmethyl-3'-N-[2-(5-hydroxymethyl)furyl]methyl-11-deoxy-11-[carboxy-(3-chloro-4-fluorophenethylamino)]-6-O-methyl-erythromycin A 11,12-(cyclic carbamate)]
Ki: 1.15 nM

CC[C@H]1OC(=O)[C@H](C)[C@@H](O[C@H]2C[C@@](C)(OC)[C@@H](O)[C@H](C)O2)[C@H](C)[C@@H](O[C@@H]2O[C@H](C)C[C@H](N(C)Cc3ccccn3)[C@H]2O)[C@](C)(OC)C[C@@H](C)C(=O)[C@H](C)[C@H]2N(CCc3ccc(F)c(Cl)c3)C(=O)O[C@]12C [Example 47, 3'-N-Desmethyl-3'-N-(2-pyridyl)methyl-11-deoxy-11-[carboxy-(3-chloro-4-fluorophenethylamino)]-6-O-methyl-erythromycin A 11,12-(cyclic carbamate)]
Ki: 2.51 nM

CC[C@H]1OC(=O)[C@H](C)[C@@H](O[C@H]2C[C@@](C)(OC)[C@@H](O)[C@H](C)O2)[C@H](C)[C@@H](O[C@@H]2O[C@H](C)C[C@H](N(C)Cc3cccc(C)n3)[C@H]2O)[C@](C)(OC)C[C@@H](C)C(=O)[C@H](C)[C@H]2N(CCc3ccc(F)c(Cl)c3)C(=O)O[C@]12C [Example 48, 3'-N-Desmethyl-3'-N-[2-(6-methyl)pyridyl]methyl-11-deoxy-11-[carboxy-(3-chloro-4-fluorophenethylamino)]-6-O-methyl-erythromycin A 11,12-(cyclic carbamate)]
Ki: 1.91 nM
